Consider five compounds from patent publication US8273700B2, “Methods and compositions for treatment of cystic fibrosis” (The Johns Hopkins University, priority 2005, dated 2012).

“Also recorded” adds a separate entry of the source. Where a SMILES comes first, the peptide text is derived from it. [ ]: non-standard residue; d: D form. Nle = CCCC[C@H](N)C(=O)O

The target of one data set is T1, CFTR (Homo sapiens, UniProt P13569, DEL508-508).
T1 construct: expressed in transfected cells; host or cells: IB3-1 (ΔF508/W1282X) and CFTE (ΔF508 homozygous) cells
T1 sequence (P13569 with tags, fused parts or gaps DEL508-508): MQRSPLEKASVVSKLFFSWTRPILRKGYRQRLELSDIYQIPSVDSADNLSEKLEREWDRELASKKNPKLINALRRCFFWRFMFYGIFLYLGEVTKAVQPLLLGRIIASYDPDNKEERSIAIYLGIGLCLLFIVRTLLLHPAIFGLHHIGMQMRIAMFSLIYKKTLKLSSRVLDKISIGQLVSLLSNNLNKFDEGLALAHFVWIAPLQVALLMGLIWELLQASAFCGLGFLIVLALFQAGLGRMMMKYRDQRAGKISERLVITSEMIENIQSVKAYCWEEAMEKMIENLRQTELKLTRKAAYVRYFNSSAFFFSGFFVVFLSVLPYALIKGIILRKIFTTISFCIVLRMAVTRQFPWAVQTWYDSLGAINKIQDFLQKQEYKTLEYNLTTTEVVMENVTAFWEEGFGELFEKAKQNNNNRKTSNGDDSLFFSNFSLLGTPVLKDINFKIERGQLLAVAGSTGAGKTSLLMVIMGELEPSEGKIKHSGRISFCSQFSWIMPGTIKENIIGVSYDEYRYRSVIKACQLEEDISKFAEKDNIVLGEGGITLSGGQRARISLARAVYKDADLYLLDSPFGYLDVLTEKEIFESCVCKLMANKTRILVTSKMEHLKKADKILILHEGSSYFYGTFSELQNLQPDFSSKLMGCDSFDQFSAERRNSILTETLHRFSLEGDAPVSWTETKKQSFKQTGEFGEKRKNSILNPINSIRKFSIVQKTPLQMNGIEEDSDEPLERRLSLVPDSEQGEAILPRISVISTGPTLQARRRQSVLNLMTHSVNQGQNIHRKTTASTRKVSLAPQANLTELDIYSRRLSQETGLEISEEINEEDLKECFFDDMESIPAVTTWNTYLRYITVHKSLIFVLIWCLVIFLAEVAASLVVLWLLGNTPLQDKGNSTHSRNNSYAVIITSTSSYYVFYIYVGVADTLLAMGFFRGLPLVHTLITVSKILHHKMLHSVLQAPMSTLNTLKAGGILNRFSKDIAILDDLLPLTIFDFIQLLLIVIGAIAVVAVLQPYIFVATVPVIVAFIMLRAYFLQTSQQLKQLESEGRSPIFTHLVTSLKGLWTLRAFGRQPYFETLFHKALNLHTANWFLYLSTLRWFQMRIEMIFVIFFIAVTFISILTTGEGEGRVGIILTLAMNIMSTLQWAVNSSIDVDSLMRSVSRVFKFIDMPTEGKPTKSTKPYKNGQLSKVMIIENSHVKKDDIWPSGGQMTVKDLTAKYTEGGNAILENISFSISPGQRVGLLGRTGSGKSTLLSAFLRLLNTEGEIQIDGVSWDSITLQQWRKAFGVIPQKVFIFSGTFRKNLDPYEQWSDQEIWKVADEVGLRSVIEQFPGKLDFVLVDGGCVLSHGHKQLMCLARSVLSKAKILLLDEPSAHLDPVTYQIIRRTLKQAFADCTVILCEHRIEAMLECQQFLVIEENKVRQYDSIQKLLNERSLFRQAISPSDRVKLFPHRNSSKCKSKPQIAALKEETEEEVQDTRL
In words: MQAE assay of CFTR-mediated chloride transport in IB3-1 cells. It is filed as cell-based. The following applies: for MQAE fluorescence (Cl- channel activity): 10 μM forskolin or genistein, 5 μM CFTR inhibitor 172 or 14-22 amide (FIG. 5A). As to the method:
CFTR-mediated chloride transport activity in IB3-1 cells transfected with ΔVCP, VCPQQ, Δgp78 and gp78ΔC constructs, and treated with bortezomib (1, 5 or 10 μM) was assayed by the halide-sensitive dye, MQAE. Fluorescence of MQAE is quenched by halides. Cells were grown on glass coverslips in DMEM containing 10% FBS. Cells were loaded with the dye by hypotonic shock at 37° C. for 40 min in Opti-MEM/water (1:1) containing 10 mM MQAE, washed and then mounted in a perfusion chamber for fluorescence measurements. Fluorescence was measured using a Zeiss inverted microscope coupled to a CCD camera Excitation and emission wavelengths were 350 nm and 460 nm, respectively. The stage and objective lenses were maintained at 37° C. The media was kept flowing through the perfusion chamber at 1 ml/min using a peristaltic pump. Both 10 μM forskolin and 10 μM genistein were used to induce Cl^− transport in IB3-1 cells. CFTR was inhibited with either 5 μM CFTR inhibitor 172 (12) or 14-22 amide (Calbiochem, San Diego, Calif.) to reduced cAMP mediated phosphorylation. Chloride efflux was calculated using following equations: F0/FCl=1+[Cl-]i*Ksv (1) F0=F20*(1+0.02*Ksv) (2) (dCl/dt)=F0/[Ksv*(FCl)2]*dFCl/dt (3)

For data set [1], the system named is ΔF508-CFTR. Details: dose or concentration left out as unconfirmed. The following applies: cited from earlier work.
For another data set, the system named is IL8. In words: IL8 cytokine ELISA in IL1-β induced IB3-1 cells. The following applies: for IL8 cytokine levels: IL1-β 1 ng/ml 12 hrs. It is filed as cell-based, human. In general terms: ELISA stands for enzyme-linked immunosorbent assay.
For the next data set, the system named is NFκB. Nature of the data set: NoShift NFκB binding assay on nuclear extracts of IB3-1 cells. It is filed as cell-based, human. The following applies: for NFκB binding (absorbance at 450 nm): IL1-β 1 ng/ml 12 hrs, transfection 24 hrs or 5 μM bortezomib / 5 μM MLN-273 6 hrs (FIG. 6C). The procedure: IB3-1 cells transfected (24 hrs) with ΔVCP, ΔF508 or ΔCHOP were treated with 5 μM bortezomib (6 hrs)/5 μM MLN-273 (6 hrs)/5 mM 4PBA (24 hrs). Cells were induced with IL-β(1 ng/ml) for 12 hrs. After 24 hrs of transfection, nuclear extracts (11) were collected using NucBuster protein extraction kit (Novagen, San Diego, Calif.) and the shift in bound NFκB was measured using NoShift NFκB Binding Assay kit (Novagen, San Diego, Calif.) as specified by the manufacturer. The signal from nuclear extracts was compared with the negative control (minus extract). The specificity of protein binding was established using NFκB specific and mutant competitors. The plates were read at 450 nm on 96-well microplate reader (Molecular Devices) using SOFT-MAX-Pro software. The absorbance readings were used to determine the levels of bound NFκB. The data represents mean of three independent experiments±SD.

Data set [2] deals with ΔF508-CFTR. Nature of the data set: Pulse-chase metabolic labeling and CFTR immunoprecipitation in CFTE cells. The following applies: CFTE cells transfected with ΔF508-CFTR, 10 μM bortezomib 6 hrs, 42 hrs post-transfection (FIG. 2C). It is filed as cell-based, human. As to the method:
(§1) The IB3-1 (ΔF508/W1282X; low level expression of ΔF508-CFTR and no W1282X protein), CFTE (ΔF508-homozygous) and S9 (IB3-1 corrected by AAV-CFTR) cells were maintained in LHC-8 media containing 100 units/ml penicillin, 100 μg/ml streptomycin, 0.25 μg/ml amphotericin B and 10% fetal bovine serum. LHC-8 media was purchased from Biosource and other components were purchased from Gibco (Invitrogen, Carlsbad, Calif.). The cells were plated on 6-well plates and transfected with 4 μg plasmid DNA each of ΔF508/wt-CFTR-GFP and co-transfected with VCP shRNA (ΔVCP), VCPQQ construct (deficient in two AAA ATPase domains, D1 & D2), gp78 siRNA (Δgp78) or gp78ΔC (deficient in VCP binding domain) constructs using Lipofectamine 2000 (Invitrogen, Carlsbad, Calif.) as described by the manufacturer. After 48 hrs of transfection, cells were rinsed three times and starved for 1 hr in methionine- and cysteine-free Dulbecco's modified Eagle's medium (DMEM). Cells were pulse labeled with 250 μci/ml [^35S]-methionine and cysteine (ICN Biomedical, Irvine, Calif.) for 30 min and than chased in DMEM containing 10 mM methionine and 4 mM cysteine for indicated times.
(§2) Cells were lysed directly on plates using M-PER (Pierce Biotech. Inc., Rockford, Ill.) protein lysis buffer containing protease inhibitor cocktail (Roche) after three washes with ice cold PBS. […] Proteins were detected using respective primary antibodies. […]

The subject of the next data set is wt-CFTR. In words: Pulse-chase metabolic labeling and CFTR immunoprecipitation in S9 cells. It is filed as cell-based, human. The following applies: S9 cells transfected with wt-CFTR; ΔVCP 48 hrs or 10 μM bortezomib 6 hrs (FIG. 2B). As to the method: as §1, §2
The test system of another data set is Hsp70. In words: Immunoblotting for Hsp70 in IB3-1 cells. It is filed as cell-based, human. The following applies: IB3-1 cells treated with bortezomib 6 hrs (FIG. 3A). As to the method:
(§3) Cells were lysed directly on plates using M-PER (Pierce Biotech. Inc., Rockford, Ill.) protein lysis buffer containing protease inhibitor cocktail (Roche) after three washes with ice cold PBS. CF bronchial brushings were transferred to lysis buffer. For immunoprecipitation, 500 μg/ml (cell culture)/50 μg/ml (bronchial brushings) total protein extracts were incubated with 50 μl of protein A/G agarose beads (Santa Cruz Biotechnology Inc., Santa Cruz, Calif.) for 3 hours at 4° C. After preclearing, 5 μg of respective primary antibody or pre-immune sera (negative control) was added to each tube. After 1 hour, protein A/G agarose beads (50 μL) were added to each tube and tubes were incubated overnight at 4° C. Beads were washed once with lysis buffer (20 mM Tris-HCl [pH 7.6], 150 mM NaCl, 0.5% Triton X-100 and 10 μM phenylmethylsulfonyl fluoride [PMSF]) followed with two washes with phosphate buffer saline (PBS). The beads were suspended in Laemmli's sample buffer (30 μL) containing β-mercaptoethanol, vortexed for 1 minute, resolved by 4-10% SDS-PAGE and transferred to a 0.4-μm pore size nitrocellulose membrane. Proteins were detected using respective primary antibodies. For pulse chase experiments, CFTR immunoprecipitate was eluted with sample buffer and separated on a 4-8% SDS-PAGE, dried for 2 hours and processed for autoradiography.
(In general: In western blotting, separated proteins are transferred to a membrane and probed.)

Data set [3] concerns streptococcal cell wall-induced polyarthritis. The following applies: rat; cited from earlier work.
For data set [4], the system named is ΔF508-CFTR. Nature of the data set: Pulse-chase metabolic labeling and CFTR immunoprecipitation in IB3-1 cells. It is filed as cell-based, human. The following applies: metabolic labeling t=2 hrs, transfection 48 hrs or 10 μM bortezomib 6 hrs (FIG. 2D). As to the method:
as §1, §2

In a further data set the test system is NF-κB. The following applies: mammalian cells; cited from earlier work.
The test system of the next data set is gp78. In words: Immunoblotting for gp78 in IB3-1 cells. It is filed as cell-based, human. The following applies: IB3-1 cells treated with bortezomib 6 hrs (FIG. 3A). The procedure:
as §3

The next data set deals with proteasome. Nature of the data set: Protease activity in IB3-1 cells. It is filed as cell-based, human. The following applies: 10 μM, 6 hrs treatment.
Another data set has as its system VCP. Nature of the data set: Immunoblotting for VCP in IB3-1 cells. It is filed as cell-based, human. The following applies: IB3-1 cells treated with bortezomib 6 hrs (FIG. 3A). As to the method:
as §3

The next data set concerns IB3-1 cells. Nature of the data set: Microscopic examination of cell morphology. It is filed as cell-based, human. The following applies: 10 μM bortezomib 6 hrs, phase microscopy (data not shown).
The next data set has as its system Hsp40. Nature of the data set: Immunoblotting for Hsp40 in IB3-1 cells. It is filed as cell-based, human. The following applies: IB3-1 cells treated with bortezomib 6 hrs (FIG. 3A). As to the method: as §3
Data set [5] concerns E-selectin, ICAM-1, and VCAM-1. The following applies: primary human umbilical vein endothelial cells; cited from earlier work.
[6] abbreviates: transfection 24 hrs or 5 μM bortezomib / 5 μM MLN-273 6 hrs (FIG. 6B).

As to `O=C(O)c1ccc(/C=C2\SC(=S)N(c3cccc(C(F)(F)F)c3)C2=O)cc1` [172 inhibitor], at CFTR (IB3-1 cells), the “MQAE fluorescence (Cl- channel activity)” value is reported as “block the cAMP mediated cystic fibrosis transmembrane receptor (CFTR) activity”.
For the compound `CCCC[C@@H](C=O)NC(=O)[C@H](CC(C)C)NC(=O)[C@H](CC(C)C)NC(C)=O` [ALLN, N-acetyl-leucylleucyl-Norleucinal] (Ac-Leu-Leu-[Nle]-aldehyde), the ΔF508-CFTR degradation result with ΔF508-CFTR [1] is listed as “blocks ΔF508-CFTR it degradation”.
Regarding `CC(C)C[C@H](NC(=O)[C@H](Cc1cccc2ccccc12)NC(=O)N1CCOCC1)B(O)O` [MLN273], the IL8 cytokine levels result with IL8 (setting [6]) was “significantly inhibited”. Also, the “NFκB binding (absorbance at 450 nm)” value with NFκB is recorded as “significantly inhibited”.
In the case of `CC(C)C[C@H](NC(=O)[C@H](Cc1ccccc1)NC(=O)c1cnccn1)B(O)O` [bortezomib, pyrazylcarbonyl-Phe-Leu-boronate], the IL8 cytokine levels result in the data set on IL8 (setting [6]) was “significantly inhibited”; in the data set on IL8 (transfection 48 hrs or 5 μM bortezomib 6 hrs (FIG. 6A)), “significantly downregulated; also recorded: significantly inhibited”. Further, in the data set with IL8 (ΔCHOP 24 hrs plus 5 μM bortezomib 6 hrs, IL1-β 1 ng/ml (FIG. 6B)), the “combined effect of ΔCHOP and bortezomib on IL8 down regulation” value is “synergistic effect”. In the data set on ΔF508-CFTR [2], the “ΔF508-CFTR accumulation and rescue” value was “significant increase in the accumulation and stabilization of the B form; also recorded: rescues the ΔF508-CFTR mature (C-form) by 2 hrs”. Moreover, the “genistein mediated chloride efflux” value on CFTR (IB3-1 cells transfected with ΔF508-CFTR, bortezomib 5 or 10 μM for 6 hrs, bars in mM/s (FIG. 5C)) was “augmented chloride efflux; also recorded: significantly induced”. Further, the “combined effect with genistein on rescue of functional ΔF508-CFTR” value at CFTR (IB3-1 cells, with genistein (FIG. 5C)) is listed as “synergistic effect”. Also, in the data set on wt-CFTR, the “wt-CFTR maturation and stability, band B to band C” value is listed as “substantial amounts of mature band C; also recorded: stabilizes the wild type-CFTR mature (C-form)”. Besides, the Hsp70 protein level result in the data set on Hsp70 was “Induction”; in the data set on Hsp70 (listed as Bortezomib), “induced”. In data set [3], the “T cell-dependent chronic phase of the inflammatory response” value was “markedly inhibited”. In data set [3], the “neutrophil-predominant acute phase of the inflammatory response” value was “attenuated”. In the data set on ΔF508-CFTR [4], the “level of immature B form of ΔF508-CFTR” value is “partially rescues”. Further, the “rescue of ΔF508-CFTR from ERAD” value in the data set with ΔF508-CFTR [4] is “partially rescued ΔF508-CFTR”. Further, the “NF-κB activation and NF-κB-dependent gene expression” value in the data set with NF-κB was “inhibit NF-κB activation and NF-κB-dependent gene expression”. Moreover, in the data set with gp78, the gp78 protein level result is “no change”. In addition, the protease activity entry in the data set with proteasome is given as “partial inhibition”. The VCP protein level entry in the data set with VCP is listed as “inhibition”; with VCP (listed as Bortezomib), “inhibited”. For the same compound, the “morphology of treated vs untreated monolayers” value in the data set on IB3-1 cells was “no difference in morphology”. Also, the Hsp40 protein level entry in the data set with Hsp40 is recorded as “no change”. Further, the “TNF-α-induced gene expression of cell-surface adhesion molecules” value in [5] is reported as “inhibits”. The “NFκB binding (absorbance at 450 nm)” value in the data set on NFκB is given as “significantly inhibited”. The “combined effect of ΔCHOP and bortezomib on NFκB binding” value in the data set with NFκB (ΔCHOP 24 hrs plus 5 μM bortezomib 6 hrs, IL1-β 1 ng/ml (FIG. 6C)) was “synergistic effect”.
With `O=c1c(-c2ccc(O)cc2)coc2cc(O)cc(O)c12` [genistein], the “MQAE fluorescence (Cl- channel activity)” value on CFTR (IB3-1 cells) is listed as “significant change”; on CFTR (IB3-1 cells, listed as Genistein), “significant increase”.
